These results are taken from patent US12454529B2, “Piperazine cyclic ureas” (SIRONAX LTD., priority 2020, dated 2025).

The first assay has as its system HT-29 cells. The assay is described as follows: HT-29 cell necrosis/necroptosis inhibition (TNF-α + SMAC mimetic + zVAD-FMK; CellTiter-Glo cell viability). Type of assay: cell-based. The note with it: Homo sapiens, HT-29, 20 h, read-out: EC50 (Cell activity; Necrosis/Necroptosis Inhibitory Activity, Compounds 143-323). Put shortly:
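HT-29 cells (~5,000/well) were switched to FBS-free McCOY's 5A holding TNF-α (10 ng/ml), SMAC mimetic (6 μM) and zVAD-FMK (10 μM), then dosed with a 10-point 1:3 series for 20 h at 37 °C. CellTiter-Glo luminescence gave viability; geometric mean EC50 from duplicates.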
On the technique in general: In ATP-based viability assays light output follows the ATP content of the culture.
In the case of `Cc1nc(C(=O)N2CCC2)nn1-c1nc(N2CCN(C(=O)N3N=CC[C@H]3c3cc(F)cc(C#N)c3)CC2)ncc1F` [Compound 247, (S)-3-(1-(4-(4-(3-(azetidine-1-carbonyl)-5-methyl-1H-1,2,4-triazol-1-yl)-5-fluoropyrimidin-2-yl)piperazine-1-carbonyl)-4,5-dihydro-1H-pyrazol-5-yl)-5-fluorobenzonitrile], the EC50 – broadly, the concentration that produces a half-maximal response – was 0.1 to 100 nM.

Still in this assay, the particulars now being: Homo sapiens; HT-29 cells, TNF-α 10 ng/ml + SMAC mimetic 6 μM + zVAD-FMK 10 μM, 20 hours; geometric mean, 10 points in duplicate; read-out: EC50 (Cell activity; Necrosis/Necroptosis Inhibitory Activity, Compounds 1-142).
`Cc1n[nH]c(C)c1-c1nc(N2CCN(C(=O)N3N=CC[C@H]3c3cc(F)cc(C#N)c3)CC2)ncc1F` [Compound 94, (S)-3-(1-(4-(4-(3,5-dimethyl-1H-pyrazol-4-yl)-5-fluoropyrimidin-2-yl)piperazine-1-carbonyl)-4,5-dihydro-1H-pyrazol-5-yl)-5-fluorobenzonitrile]: the concentration giving a half-maximal response (EC50) was in the range of 0.1 to 100 nM.
For `N#Cc1cc(F)cc([C@@H]2CC=NN2C(=O)N2CCN(c3ncc(F)c(-c4cn[nH]c4)n3)CC2)c1` [Compound 54, (S)-3-fluoro-5-(1-(4-(5-fluoro-4-(1H-pyrazol-4-yl)pyrimidinyl)piperazine-1-carbonyl)-4,5-dihydro-1H-pyrazol-5-yl)benzonitrile], the EC50 lay in the range of 0.1 to 100 nM.
Still for that read-out and setting: to `O=C(N1CCN(c2nccc(-c3cc[nH]n3)n2)CC1)N1N=CC[C@H]1c1cccc(F)c1` [Compound 35, (S)-(4-(4-(1H-pyrazol-3-yl)pyrimidin-2-yl)piperazin-1-yl)(5-(3-fluorophenyl)-4,5-dihydro-1H-pyrazol-1-yl)methanone] belongs 0.1 to 100 nM.
For the molecule `Cc1c(-c2nc(N3CCN(C(=O)N4N=CC[C@H]4c4cc(F)cc(F)c4)CC3)ncc2F)nnn1CC(N)=O` [Compound 31, (S)-2-(4-(2-(4-(5-(3,5-difluorophenyl)-4,5-dihydro-1H-pyrazole-1-carbonyl)piperazin-1-yl)-5-fluoropyrimidin-4-yl)-5-methyl-1H-1,2,3-triazol-1-yl)acetamide], the concentration giving a half-maximal response (EC50) is 0.1 to 100 nM.
As for `O=C(N1CCN(c2ncc(F)c(-c3ccc(O)nc3)n2)CC1)N1N=CC[C@H]1c1cc(F)cc(F)c1` [Compound 25, (S)-(5-(3,5-difluorophenyl)-4,5-dihydro-1H-pyrazol-1-yl)(4-(5-fluoro-4-(6-hydroxypyridin-3-yl)pyrimidin-2-yl)piperazin-1-yl)methanone], the EC50 is 0.1 to 100 nM.
On the same count and under the same terms, the value for `Cc1nn(-c2nc(N3CCN(C(=O)N4N=CC[C@H]4c4cc(F)cc(C#N)c4)CC3)ncc2F)c(=O)n1C` [Compound 96, (S)-3-(1-(4-(4-(3,4-dimethyl-5-oxo-4,5-dihydro-1H-1,2,4-triazol-1-yl)-5-fluoropyrimidin-2-yl)piperazine-1-carbonyl)-4,5-dihydro-1H-pyrazol-5-yl)-5-fluorobenzonitrile] was 0.1 to 100 nM; that for `Cn1c(-c2nc(N3CCN(C(=O)N4N=CC[C@H]4c4cc(F)cc(C#N)c4)CC3)ncc2F)cc(=O)n(C)c1=O` [Compound 51, (S)-3-fluoro-5-(1-(4-(5-fluoro-1′,3′-dimethyl-2′,6′-dioxo-1′,2′,3′,6′-tetrahydro-[4,4′-bipyrimidin]-2-yl)piperazine-1-carbonyl)-4,5-dihydro-1H-pyrazol-5-yl)benzonitrile] was 0.1 to 100 nM; that for `Cc1nn(CC(N)=O)cc1-c1nc(N2CCN(C(=O)N3N=CC[C@H]3c3cc(F)cc(F)c3)CC2)ncc1F` [Compound 18, (S)-2-(4-(2-(4-(5-(3,5-difluorophenyl)-4,5-dihydro-1H-pyrazole-1-carbonyl)piperazin-1-yl)-5-fluoropyrimidin-4-yl)-3-methyl-1H-pyrazol-1-yl)acetamide] was 0.1 to 100 nM.
Still for that read-out and setting: to `Cn1ncc(C#N)c1-c1nc(N2CCN(C(=O)N3N=CC[C@H]3c3cc(F)cc(C#N)c3)CC2)ncc1F` [Compound 67, (S)-5-(2-(4-(5-(3-cyano-5-fluorophenyl)-4,5-dihydro-1H-pyrazole-1-carbonyl)piperazin-1-yl)-5-fluoropyrimidin-4-yl)-1-methyl-1H-pyrazole-4-carbonitrile] belongs 0.1 to 100 nM; to `Cc1cc(-c2nc(N3CCN(C(=O)N4N=CC[C@H]4c4cc(F)cc(F)c4)CC3)ncc2F)n(C)n1` [Compound 83, (S)-(5-(3,5-difluorophenyl)-4,5-dihydro-1H-pyrazol-1-yl)(4-(4-(1,3-dimethyl-1H-pyrazol-5-yl)-5-fluoropyrimidin-2-yl)piperazin-1-yl)methanone], 0.1 to 100 nM; to `Cc1nn(CCC2CCOCC2)c(C)c1-c1nc(N2CCN(C(=O)N3N=CC[C@H]3c3cc(F)cc(C#N)c3)CC2)ncc1F` [Compound 138, (S)-3-(1-(4-(4-(3,5-dimethyl-1-(2-(tetrahydro-2H-pyran-4-yl)ethyl)-1H-pyrazol-4-yl)-5-fluoropyrimidin-2-yl)piperazine-1-carbonyl)-4,5-dihydro-1H-pyrazol-5-yl)-5-fluorobenzonitrile], 0.1 to 100 nM.

The same assay, now with this note: Homo sapiens; HT-29 cells, TNF-α 10 ng/ml + SMAC mimetic 6 μM + zVAD-FMK 10 μM, 20 hours; geometric mean, 10 points in duplicate; read-out: EC50 (Cell activity; Necrosis/Necroptosis Inhibitory Activity, Compounds 143-323).
In the case of `Cc1nc(C2CC=NN2C(=O)N2CCN(c3nc(-c4c(C)cnn4C)ccc3F)CC2)cs1` (stereo not shown) [Compound 298, (4-(6-(1,4-dimethyl-1H-pyrazol-5-yl)-3-fluoropyridin-2-yl)piperazin-1-yl)(5-(2-methylthiazol-4-yl)-4,5-dihydro-1H-pyrazol-1-yl)methanone], the EC50 was 0.1 to 100 nM.
Same read-out and setting: to `Cc1nc(C)n(-c2ccnc(N3CCN(C(=O)N4N=CC[C@H]4c4cc(F)cc(C#N)c4)CC3)n2)n1` [Compound 243, (S)-3-(1-(4-(4-(3,5-dimethyl-1H-1,2,4-triazol-1-yl)pyrimidin-2-yl)piperazine-1-carbonyl)-4,5-dihydro-1H-pyrazol-5-yl)-5-fluorobenzonitrile] belongs 0.1 to 100 nM; to `Cc1ncc(C2CC=NN2C(=O)N2CCN(c3nc(-c4c(C)cnn4C)ncc3F)CC2)s1` (stereo not shown) [Compound 162, (4-(2-(1,4-dimethyl-1H-pyrazol-5-yl)-5-fluoropyrimidin-4-yl)piperazin-1-yl)(5-(2-methylthiazol-5-yl)-4,5-dihydro-1H-pyrazol-1-yl)methanone], 0.1 to 100 nM; to `Cc1cnn(C)c1-c1ncc(F)c(N2CCN(C(=O)N3N=CC[C@H]3c3cc(F)cc(C#N)c3)CC2)n1` [Compound 268, (S)-3-(1-(4-(2-(1,4-dimethyl-1H-pyrazol-5-yl)-5-fluoropyrimidin-4-yl)piperazine-1-carbonyl)-4,5-dihydro-1H-pyrazol-5-yl)-5-fluorobenzonitrile], 0.1 to 100 nM.
For `COc1cnc(N2CCN(C(=O)N3N=CC[C@H]3c3cc(F)cc(C#N)c3)CC2)nc1-c1ncnn1C` [Compound 150, (S)-3-fluoro-5-(1-(4-(5-methoxy-4-(1-methyl-1H-1,2,4-triazol-5-yl)pyrimidin-2-yl)piperazine-1-carbonyl)-4,5-dihydro-1H-pyrazol-5-yl)benzonitrile], the EC50 lay in the range of 0.1 to 100 nM.
`Cc1ncn(-c2nc(N3CCN(C(=O)N4N=CC[C@H]4c4cc(F)cc(F)c4)CC3)ncc2F)n1` [Compound 235, (S)-(5-(3,5-difluorophenyl)-4,5-dihydro-1H-pyrazol-1-yl)(4-(5-fluoro-4-(3-methyl1H-1,2,4-triazol-1-yl)pyrimidin-2-yl)piperazin-1-yl)methanone]: the 50% effective concentration (EC50) was 0.1 to 100 nM.
`Cc1ncc(C2CC=NN2C(=O)N2CCN(c3cc(-c4c(C)cnn4C)ncc3F)CC2)s1` (stereo not shown) [Compound 292, (4-(2-(1,4-dimethyl-1H-pyrazol-5-yl)-5-fluoropyridin-4-yl)piperazin-1-yl)(5-(2-methylthiazol-5-yl)-4,5-dihydro-1H-pyrazol-1-yl)methanone]: the concentration giving a half-maximal response (EC50) fell in the range of 100 to 1000 nM.
On the same count and under the same terms, to `O=C(N1CCN(c2ncc(F)c(-n3cnc(C(F)(F)F)n3)n2)CC1)N1N=CC[C@H]1c1cncc(F)c1` [Compound 314, (S)-(4-(5-fluoro-4-(3-(trifluoromethyl)-1H-1,2,4-triazol-1-yl)pyrimidin-2-yl)piperazin-1-yl)(5-(5-fluoropyridin-3-yl)-4,5-dihydro-1H-pyrazol-1-yl)methanone] belongs 0.1 to 100 nM; to `Cc1nc(CO)nn1-c1nc(N2CCN(C(=O)N3N=CC[C@H]3c3cncc(F)c3)CC2)ncc1F` [Compound 250, (S)-(4-(5-fluoro-4-(3-(hydroxymethyl)-5-methyl-1H-1,2,4-triazol-1-yl)pyrimidin-2-yl)piperazin-1-yl)(5-(5-fluoropyridin-3-yl)-4,5-dihydro-1H-pyrazol-1-yl)methanone], 0.1 to 100 nM.
As to `Cc1nc(C#N)nn1-c1nc(N2CCN(C(=O)N3N=CC[C@H]3c3cc(F)cc(F)c3)CC2)ncc1F` [Compound 254, (S)-1-(2-(4-(5-(3,5-difluorophenyl)-4,5-dihydro-1H-pyrazole-1-carbonyl)piperazin-1-yl)-5-fluoropyrimidin-4-yl)-5-methyl-1H-1,2,4-triazole-3-carbonitrile], the EC50 was 0.1 to 100 nM.
The same measure, in the same setting: the value for `O=C(N1CCN(c2ncc(F)c(-n3cnc(C(F)(F)F)n3)n2)CC1)N1N=CC[C@H]1c1cccc(F)c1` [Compound 313, (S)-(4-(5-fluoro-4-(3-(trifluoromethyl)-1H-1,2,4-triazol-1-yl)pyrimidin-2-yl)piperazin-1-yl)(5-(3-fluorophenyl)-4,5-dihydro-1H-pyrazol-1-yl)methanone] was 0.1 to 100 nM.
`O=C(N1CCN(c2ncc(F)c(-n3nccc3C(F)(F)F)n2)CC1)N1N=CC[C@H]1c1cc(F)cc(F)c1` [Compound 315, (S)-(5-(3,5-difluorophenyl)-4,5-dihydro-1H-pyrazol-1-yl)(4-(5-fluoro-4-(5-(trifluoromethyl)-1H-pyrazol-1-yl)pyrimidin-2-yl)piperazin-1-yl)methanone]: the EC50 was in the range of 0.1 to 100 nM.
The same measure, in the same setting: the value for `Cc1nc(C2CC=NN2C(=O)N2CCN(c3nc(-c4c(C)cnn4C)ncc3F)CC2)cs1` (stereo not shown) [Compound 158, (4-(2-(1,4-dimethyl-1H-pyrazol-5-yl)-5-fluoropyrimidin-4-yl)piperazinyl)(5-(2-methylthiazol-4-yl)-4,5-dihydro-1H-pyrazol-1-yl)methanone] was 0.1 to 100 nM.
